pIC50, pKd: −log10 of the molar value. The source made the active and inactive calls. The rule behind the calls is not given here.
How the values were obtained:
[1] = target: T1, Histone deacetylase 1 (Homo sapiens, UniProt Q13547); experiment: Induction of HDAC1 degradation in human RS4-11 cells at 0.5 to 10 uM incubated for 12 hrs by Western blotting analysis; format: cell-based; conditions: dose 0.5-10 µM
[2] = target: Histone deacetylase 9 (Homo sapiens, UniProt Q9UKV0); experiment: Inhibition of HDAC9 in human HeLa cells nuclear extract using BocLys(acetyl)-AMC as substrate incubated for 1 hr by fluorescence plate reader analysis; format: subcellular, Nucleus
Sequence of Histone deacetylase 9 (Q9UKV0 whole entry): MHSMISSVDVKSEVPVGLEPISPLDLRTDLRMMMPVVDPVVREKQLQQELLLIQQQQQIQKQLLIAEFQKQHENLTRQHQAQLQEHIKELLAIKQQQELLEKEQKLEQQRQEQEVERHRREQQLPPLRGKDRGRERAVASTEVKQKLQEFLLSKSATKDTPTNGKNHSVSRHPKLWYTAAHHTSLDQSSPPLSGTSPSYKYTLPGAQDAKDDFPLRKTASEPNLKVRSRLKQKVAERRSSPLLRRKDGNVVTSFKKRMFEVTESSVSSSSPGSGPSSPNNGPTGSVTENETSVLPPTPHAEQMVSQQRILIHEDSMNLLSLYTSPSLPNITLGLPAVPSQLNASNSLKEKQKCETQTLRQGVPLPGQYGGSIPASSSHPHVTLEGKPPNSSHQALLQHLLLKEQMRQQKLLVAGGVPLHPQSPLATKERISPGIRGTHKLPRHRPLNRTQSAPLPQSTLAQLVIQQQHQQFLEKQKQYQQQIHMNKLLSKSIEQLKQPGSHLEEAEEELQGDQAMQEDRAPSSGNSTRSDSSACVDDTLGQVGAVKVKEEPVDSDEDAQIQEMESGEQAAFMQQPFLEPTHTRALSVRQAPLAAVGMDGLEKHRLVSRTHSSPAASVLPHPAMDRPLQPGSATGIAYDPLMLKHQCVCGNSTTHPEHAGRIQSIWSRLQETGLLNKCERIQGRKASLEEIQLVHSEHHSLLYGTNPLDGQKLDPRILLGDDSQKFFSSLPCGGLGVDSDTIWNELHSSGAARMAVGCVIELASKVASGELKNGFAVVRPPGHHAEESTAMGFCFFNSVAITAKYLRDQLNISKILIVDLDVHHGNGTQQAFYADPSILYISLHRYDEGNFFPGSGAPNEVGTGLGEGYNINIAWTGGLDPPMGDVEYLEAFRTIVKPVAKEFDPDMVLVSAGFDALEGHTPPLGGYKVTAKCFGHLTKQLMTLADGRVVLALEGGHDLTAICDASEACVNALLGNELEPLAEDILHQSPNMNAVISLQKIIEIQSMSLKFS

[3] = target: T2, Histone deacetylase (Homo sapiens) (UniProt Q13547+O15379+Q9UBN7+Q92769+Q9UQL6+Q8WUI4+Q9BY41+Q96DB2+P56524+Q9UKV0+Q969S8); experiment: Inhibition of HDAC in human RS4-11 cells assessed as upregulation of histone H3 acetylation by Western blot assay; format: cell-based
[4] = system: RS4-11; experiment: Induction of apoptosis in human RS4-11 cells assessed as cleaved caspase-9 release at 1 to 10 uM; format: functional, cell-based; conditions: dose 1-10 µM
[5] = target: Histone deacetylase 4 (Homo sapiens, UniProt P56524); experiment: Inhibition of HDAC4 in human HeLa cells nuclear extract using BocLys(acetyl)-AMC as substrate incubated for 1 hr by fluorescence plate reader analysis; format: subcellular, Nucleus
Sequence of Histone deacetylase 4 (P56524 whole entry): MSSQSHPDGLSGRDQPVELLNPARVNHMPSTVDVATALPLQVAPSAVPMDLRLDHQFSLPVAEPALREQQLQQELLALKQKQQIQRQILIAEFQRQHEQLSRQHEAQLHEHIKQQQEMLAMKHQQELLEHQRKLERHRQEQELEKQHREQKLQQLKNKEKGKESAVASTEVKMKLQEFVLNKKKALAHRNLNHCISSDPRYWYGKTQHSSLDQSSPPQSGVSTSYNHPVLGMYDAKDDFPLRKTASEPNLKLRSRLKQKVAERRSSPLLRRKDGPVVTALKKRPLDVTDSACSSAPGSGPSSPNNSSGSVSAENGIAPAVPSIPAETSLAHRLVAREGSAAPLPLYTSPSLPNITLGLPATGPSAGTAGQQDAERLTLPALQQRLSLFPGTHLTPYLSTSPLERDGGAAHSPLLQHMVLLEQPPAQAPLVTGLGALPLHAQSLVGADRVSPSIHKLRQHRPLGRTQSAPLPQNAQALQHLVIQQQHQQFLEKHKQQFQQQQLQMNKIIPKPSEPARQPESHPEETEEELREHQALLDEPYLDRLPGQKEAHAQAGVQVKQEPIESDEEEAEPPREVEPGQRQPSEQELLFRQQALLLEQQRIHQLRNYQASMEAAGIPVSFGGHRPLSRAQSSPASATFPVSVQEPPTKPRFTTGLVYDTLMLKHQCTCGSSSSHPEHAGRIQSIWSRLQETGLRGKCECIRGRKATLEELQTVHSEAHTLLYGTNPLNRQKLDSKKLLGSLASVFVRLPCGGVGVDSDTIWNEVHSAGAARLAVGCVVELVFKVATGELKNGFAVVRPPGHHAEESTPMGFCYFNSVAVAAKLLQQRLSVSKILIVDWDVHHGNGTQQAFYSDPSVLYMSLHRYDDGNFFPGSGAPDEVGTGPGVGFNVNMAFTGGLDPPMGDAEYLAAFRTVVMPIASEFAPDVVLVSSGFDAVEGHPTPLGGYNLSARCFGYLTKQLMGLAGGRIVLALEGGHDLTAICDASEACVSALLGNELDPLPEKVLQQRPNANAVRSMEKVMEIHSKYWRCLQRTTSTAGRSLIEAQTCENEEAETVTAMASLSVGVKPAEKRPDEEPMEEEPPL

[6] = target: Zinc finger protein Aiolos (Homo sapiens) (UniProt Q9UKT9); experiment: Induction of IKZF3 degradation in human RS4-11 cells at 1 to 10 uM by Western blotting analysis; format: cell-based; conditions: dose 1-10 µM
Sequence of Zinc finger protein Aiolos (Homo sapiens) (Q9UKT9 whole entry): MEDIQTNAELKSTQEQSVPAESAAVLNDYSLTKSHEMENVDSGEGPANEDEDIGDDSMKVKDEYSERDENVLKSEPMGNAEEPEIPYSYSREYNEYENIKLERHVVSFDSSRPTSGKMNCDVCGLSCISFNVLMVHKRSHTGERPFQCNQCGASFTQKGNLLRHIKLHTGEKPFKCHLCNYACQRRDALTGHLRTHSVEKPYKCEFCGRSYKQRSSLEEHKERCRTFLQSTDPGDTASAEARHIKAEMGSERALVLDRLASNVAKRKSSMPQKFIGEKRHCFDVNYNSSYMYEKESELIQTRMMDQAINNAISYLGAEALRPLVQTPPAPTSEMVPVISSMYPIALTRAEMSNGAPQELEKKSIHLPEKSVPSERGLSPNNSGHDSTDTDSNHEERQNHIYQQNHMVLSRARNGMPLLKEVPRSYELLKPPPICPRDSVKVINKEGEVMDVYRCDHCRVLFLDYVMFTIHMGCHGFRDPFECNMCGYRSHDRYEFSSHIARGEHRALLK

[7] = system: A549; experiment: Antiproliferative activity against human A549 cells assessed as cell growth inhibition at 5 uM incubated for 48 hrs by CCK-8 assay; format: functional, cell-based
[8] = system: RS4-11; experiment: Induction of apoptosis in human RS4-11 cells after 48 hrs by Annexin V-FITC/PI staining based flow cytometry analysis; format: functional, cell-based; conditions: dose 1-10 µM
[9] = target: T1, Histone deacetylase 1; experiment: Inhibition of HDAC1 (unknown origin) using BocLys(acetyl)-AMC as substrate incubated for 1 hr by fluorescence plate reader analysis
[10] = system: RS4-11; experiment: Antiproliferative activity against human RS4-11 cells assessed as cell growth inhibition incubated for 48 hrs by CCK-8 assay; format: functional, cell-based; conditions: RS4-11, 48 h
[11] = target: T1, Histone deacetylase 1; experiment: Binding affinity to HDAC1 (unknown origin)
[12] = target: T2, Histone deacetylase (Homo sapiens); experiment: Inhibition of HDAC in human RS4-11 cells assessed as upregulation of histone H3 acetylation at 1 to 10 uM by Western blot assay; format: cell-based; conditions: dose 1-10 µM
[13] = target: T3, Protein deacetylase HDAC6 (Homo sapiens) (UniProt Q9UBN7); experiment: Inhibition of HDAC6 in human RS4-11 cells assessed as effect on alpha-tubulin acetylation by Western blot assay; format: cell-based
T3 sequence (whole entry): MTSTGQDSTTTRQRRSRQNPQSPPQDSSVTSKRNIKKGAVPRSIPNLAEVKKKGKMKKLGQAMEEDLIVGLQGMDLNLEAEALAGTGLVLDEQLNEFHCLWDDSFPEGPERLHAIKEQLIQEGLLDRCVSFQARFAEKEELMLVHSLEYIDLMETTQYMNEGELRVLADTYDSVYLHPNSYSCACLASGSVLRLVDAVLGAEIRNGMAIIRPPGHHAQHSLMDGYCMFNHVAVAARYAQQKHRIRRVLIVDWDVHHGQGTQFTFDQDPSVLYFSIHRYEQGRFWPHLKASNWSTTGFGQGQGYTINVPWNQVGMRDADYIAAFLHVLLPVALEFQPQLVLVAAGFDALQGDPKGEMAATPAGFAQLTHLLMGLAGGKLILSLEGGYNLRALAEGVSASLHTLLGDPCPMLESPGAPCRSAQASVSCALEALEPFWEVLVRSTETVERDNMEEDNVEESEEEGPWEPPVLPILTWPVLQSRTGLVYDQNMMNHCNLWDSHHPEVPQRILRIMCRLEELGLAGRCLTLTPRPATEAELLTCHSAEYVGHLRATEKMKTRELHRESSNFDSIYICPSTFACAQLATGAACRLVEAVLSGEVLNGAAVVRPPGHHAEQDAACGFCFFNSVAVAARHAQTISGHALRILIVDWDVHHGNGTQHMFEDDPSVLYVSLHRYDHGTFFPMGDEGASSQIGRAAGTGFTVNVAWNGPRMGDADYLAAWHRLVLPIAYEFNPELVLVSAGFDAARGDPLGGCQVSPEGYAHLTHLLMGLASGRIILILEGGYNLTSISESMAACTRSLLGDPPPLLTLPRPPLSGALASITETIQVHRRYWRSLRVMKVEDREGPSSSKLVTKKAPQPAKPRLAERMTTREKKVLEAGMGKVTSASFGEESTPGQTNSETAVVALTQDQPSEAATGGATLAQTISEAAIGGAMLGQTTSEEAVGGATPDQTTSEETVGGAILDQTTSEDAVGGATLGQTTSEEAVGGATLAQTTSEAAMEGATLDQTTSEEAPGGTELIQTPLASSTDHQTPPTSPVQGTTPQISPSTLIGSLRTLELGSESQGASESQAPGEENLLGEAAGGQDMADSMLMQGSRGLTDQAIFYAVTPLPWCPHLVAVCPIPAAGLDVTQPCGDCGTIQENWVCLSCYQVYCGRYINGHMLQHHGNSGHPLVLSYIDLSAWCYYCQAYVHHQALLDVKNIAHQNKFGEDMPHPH

[14] = system: U-266; experiment: Antiproliferative activity against human U-266 cells assessed as cell growth inhibition at 5 uM incubated for 48 hrs by CCK-8 assay; format: functional, cell-based
[15] = target: T2, Histone deacetylase (Homo sapiens); experiment: Inhibition of HDAC in human RS4-11 cells assessed as upregulation of histone H4 acetylation at 1 to 10 uM by Western blot assay; format: cell-based; conditions: dose 1-10 µM
[16] = system: RS4-11; experiment: Antiproliferative activity against human RS4-11 cells assessed as cell growth inhibition at 5 uM incubated for 48 hrs by CCK-8 assay; format: functional, cell-based
[17] = system: RS4-11; experiment: Induction of cell cycle arrest in human RS4-11 cells assessed as S phase arrest after 48 hrs by PI staining based flow cytometry analysis; format: functional; conditions: dose 1-10 µM
[18] = system: RPMI-8226; experiment: Antiproliferative activity against human RPMI-8226 cells assessed as cell growth inhibition at 5 uM incubated for 48 hrs by CCK-8 assay; format: functional, cell-based
[19] = system: RS4-11; experiment: Induction of apoptosis in human RS4-11 cells assessed as upregulation of Bax level; format: functional, cell-based; conditions: dose 1-10 µM
[20] = system: RS4-11; experiment: Induction of apoptosis in human RS4-11 cells assessed as downregulation of Bcl-2 level; format: functional, cell-based; conditions: dose 1-10 µM
[21] = target: Histone deacetylase 2 (Homo sapiens, UniProt Q92769); experiment: Inhibition of HDAC2 in human HeLa cells nuclear extract using BocLys(acetyl)-AMC as substrate incubated for 1 hr by fluorescence plate reader analysis; format: subcellular, Nucleus
Sequence of Histone deacetylase 2 (Q92769 whole entry): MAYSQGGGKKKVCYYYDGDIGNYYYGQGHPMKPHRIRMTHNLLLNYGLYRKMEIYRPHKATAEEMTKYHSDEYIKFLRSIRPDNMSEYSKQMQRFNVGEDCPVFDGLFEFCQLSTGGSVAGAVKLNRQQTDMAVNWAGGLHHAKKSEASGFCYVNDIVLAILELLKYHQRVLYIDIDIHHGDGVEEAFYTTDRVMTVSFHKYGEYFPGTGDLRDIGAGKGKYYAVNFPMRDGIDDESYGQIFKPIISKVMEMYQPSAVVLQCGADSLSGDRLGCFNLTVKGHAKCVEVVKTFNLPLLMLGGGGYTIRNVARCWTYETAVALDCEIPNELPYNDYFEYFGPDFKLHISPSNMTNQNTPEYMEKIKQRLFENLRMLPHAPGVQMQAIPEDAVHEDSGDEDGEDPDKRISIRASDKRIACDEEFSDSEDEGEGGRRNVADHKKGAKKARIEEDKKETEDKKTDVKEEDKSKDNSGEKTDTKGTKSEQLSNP

[22] = system: HeLa; experiment: Antiproliferative activity against human HeLa cells assessed as cell growth inhibition at 5 uM incubated for 48 hrs by CCK-8 assay; format: functional, cell-based
[23] = target: T4, Protein deacetylase HDAC6 (Homo sapiens, UniProt Q9UBN7); experiment: Inhibition of HDAC6 (unknown origin) using BocLys(acetyl)-AMC as substrate incubated for 1 hr by fluorescence plate reader analysis
T4 sequence (Q9UBN7 whole entry): T3 sequence (whole entry)

T1 sequence (Q13547 whole entry): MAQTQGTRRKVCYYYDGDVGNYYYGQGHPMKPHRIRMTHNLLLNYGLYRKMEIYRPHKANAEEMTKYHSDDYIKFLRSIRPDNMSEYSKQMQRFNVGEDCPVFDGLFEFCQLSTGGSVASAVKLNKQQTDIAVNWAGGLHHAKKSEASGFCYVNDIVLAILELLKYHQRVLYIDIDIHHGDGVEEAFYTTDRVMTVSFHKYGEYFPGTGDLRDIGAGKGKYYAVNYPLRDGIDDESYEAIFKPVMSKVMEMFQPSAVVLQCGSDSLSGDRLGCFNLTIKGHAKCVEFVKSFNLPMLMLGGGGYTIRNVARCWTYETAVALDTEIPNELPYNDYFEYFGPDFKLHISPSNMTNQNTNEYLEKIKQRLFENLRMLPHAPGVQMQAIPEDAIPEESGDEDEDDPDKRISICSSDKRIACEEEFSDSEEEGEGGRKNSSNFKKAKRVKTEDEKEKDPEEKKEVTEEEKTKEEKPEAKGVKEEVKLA

Activity [1] | pIC50 [2] | inhibition [3] | pIC50 [5] | Activity [6] | pIC50 [9] | pIC50 [10] | pKd [11] | Activity [12] | Activity [13] | Activity [15] | Structure (SMILES) | Activity [4] | Activity [7] | Activity [8] | Activity [14] | Activity [16] | Activity [17] | Activity [18] | Activity [19] | Activity [20] | also measured
inactive | < 5.70 | Active | < 5.70 | Active | 6.34 | 5.68 | 4.78 | Active | inactive | Active | Nc1cc(F)ccc1NC(=O)c1ccc(CNc2cccc3c2C(=O)N(C2CCC(=O)NC2=O)C3=O)cc1 (stereo unspecified) | Active | inactive | Dose-Dependent Effect | Active | Active | Dose-Dependent Effect | Active | Dose-Dependent Effect | Dose-Dependent Effect | pIC50 [21]: 6.36; Activity [22]: inactive; pIC50 [23]: < 5.70
inactive | < 5.70 | Active | < 5.70 | Active | 6.26 | 5.80 | 4.38 | Active | inactive | Active | Nc1ccccc1NC(=O)c1ccc(CNc2cccc3c2C(=O)N(C2CCC(=O)NC2=O)C3=O)cc1 (stereo unspecified) | Active | inactive | Dose-Dependent Effect | Active | Active | Dose-Dependent Effect | Active | Dose-Dependent Effect | Dose-Dependent Effect | pIC50 [21]: 6.42; Activity [22]: inactive; pIC50 [23]: < 5.70

From ChEMBL document CHEMBL5532657, “Serendipitous discovery of Class I HDAC inhibitors from rational design of molecular glue degraders targeting HDAC” (Eur J Med Chem, 2024)
